Results taken from the NIST ThermoML archive (doi:10.1016/j.jct.2010.11.003).
“And” between values parts separate entries of the source, which are not always exact repeats. Equal values may be shown once.

Assay: mn = molality of the nth substance listed, in mol/kg
Settings: 101 kPa, Liquid; for speed of sound: Sing-around technique in a fixed-path interferometer; for mass density: Vibrating tube method; for viscosity: Capillary tube (Ostwald / Ubbelohde) method

O=C([O-])CC(O)(CC(=O)[O-])C(=O)[O-].[K+].[K+].[K+] [potassium citrate] + O
Settings	mass density, 293.15 K [kg/m3]	mass density, 298.15 K [kg/m3]	mass density, 303.15 K [kg/m3]	speed of sound, 293.15 K [m/s]	speed of sound, 298.15 K [m/s]	speed of sound, 303.15 K [m/s]	viscosity, 298.15 K	viscosity, 303.15 K [mPa·s]
m1 = 0.0472	1007.81	1006.59	1005.15	1492.8	1506.6	1518.1	1.027 mPa·s and 0.911 mPa·s	0.821
m1 = 0.0566	1009.7	1008.46	1007.02	1494.6	1508.5	1519.9	0.918 mPa·s and 1.027 mPa·s	0.822
m1 = 0.066	1011.58	1010.33	–	1496.5	1510.3	1521.7	0.924 mPa·s and 1.029 mPa·s	0.825
m1 = 0.0754	1013.45	1012.19	–	1498.3	1512	1523.5	0.93 mPa·s and 1.033 mPa·s	0.832
m1 = 0.0849	1015.34	1014.06	–	1500.2	1513.9	1525.3	0.935 mPa·s and 1.037 mPa·s	0.837
m1 = 0.0943	1017.2	1015.89	–	1502.1	1515.7	1527	0.942 mPa·s and 1.041 mPa·s	0.843
m1 = 0.2984	1055.65	1054.02	–	1540.4	1552.8	1563.6	1.065 mPa·s and 1.132 mPa·s	0.956
m1 = 0.3971	1073.05	1071.35	–	1558.2	1570.1	1580.3	1.13 mPa·s and 1.183 mPa·s	1.016
m1 = 0.4955	1089.85	1088.07	–	1576	1587	1596.8	1.2 mPa·s and 1.238 mPa·s	1.08
m1 = 0.5936	1106.03	1104.21	–	1593.3	1603.8	1613.3	1.274 mPa·s and 1.295 mPa·s	1.145
m1 = 0.7877	1136.49	1134.65	–	1626.4	1636.2	1644.5	1.423 mPa·s and 1.441 mPa·s	1.295
m1 = 0.9823	1165.2	1163.14	–	1658.6	1667.5	1674.8	1.575 mPa·s and 1.624 mPa·s	1.458
m1 = 1.175	1191.92	1189.77	–	1689.6	–	1697.5	1.733 mPa·s and 1.837 mPa·s	1.647
m1 = 1.366	1216.69	1214.46	–	1718.7	–	1725.7	1.92 mPa·s and 2.072 mPa·s	1.853
m1 = 1.555	1239.9	1237.68	–	1746.2	–	1752.6	2.121 mPa·s and 2.334 mPa·s	2.085
m1 = 1.837	1272.28	1269.96	–	1784.9	–	1790.3	2.476 mPa·s and 2.788 mPa·s	2.484
